Values quoted from earlier work, collected in patent publication US20050154058A1, “Method of preparing hydroxytyrosol esters, esters thus obtained and use of same” (priority 2002, published 2005).

Tests used:
[1] = state of the art, compared in words with free hydroxytyrosol or usual additives
[2] = state of the art

CC(=O)OCCc1ccc(O)c(O)c1 [Example 1, 2-(3,4-dihydroxyphenyl)ethyl Acetate]
antioxidant activity / protective capacity against oxidation [1]: the same activity towards oxidation as does free hydroxytyrosol itself
solubility in lipophilic medium [2]: liposoluble

OCCc1ccc(O)c(O)c1 [Hydroxytyrosol, 2-(3,4-dihydroxyphenyl)ethanol]
antioxidant activity / protective capacity against oxidation [1]: much greater than the antioxidant additives normally used
solubility in lipophilic medium [2]: virtually insoluble in lipophilic medium
